One test has as its system AMPK phosphorylation. In words: Mouse model of AMPK activation deficiency induced by compound C: biochemical parameters. In kind it is in vivo, mice of the Swiss strain. The note with it: for ATP (deficit) / citrate synthase (mitochondrial mass) / lipid peroxidation / activation of IL-1β interleukin of the inflammasome / activation of IL-18 interleukin of the inflammasome: mice, compound C 20 mg/kg/day i.p., alone or with metformin; for ATP (deficit): FIG. 5; for citrate synthase (mitochondrial mass): FIG. 6; for lipid peroxidation / activation of IL-1β interleukin of the inflammasome / activation of IL-18 interleukin of the inflammasome: serum; for lipid peroxidation: FIG. 7; for activation of IL-1β interleukin of the inflammasome / activation of IL-18 interleukin of the inflammasome: FIG. 8. The procedure:
The mice were injected by intraperitoneal route once a day, the final daily dose being 20 mg/kg/day. Another group of mice received the treatment with Compound C in addition to Metformin. The treatment is performed until the day the animals are sacrificed. […]
Blood: The blood will be the starting-point to obtain serum or isolate leukocytes. The following will be measured in the serum: glucose, triglycerides, cholesterol, lactate, proteins, redox potential, protein oxidation, etc. The following will be measured in the leukocytes: ATP, inflammatory interleukins, oxidative stress, mitochondrial mass.

Test [1] relates to mice. Put plainly: Hot-plate test (nociception) in mice. The note with it: after first five days of compound c; at Temp.<50° C. and Temp.>50° C.; FIG. 9. In kind it is in vivo. The text has this: Another symptom associated with pain in fibromyalgia is depression.
In order to monitor the effect of metformin in an in vivo model of AMPK deficit, we will use mice that will be administered compound c, a specific inhibitor of AMPK phosphorylation, in time, and their behaviour will be characterised one week before starting the administrations of compound c and 7 days after the first administration. This experimental design will provide us with a view as to how metformin inhibits the effects induced by the deficit of AMPK and its influence on the behaviour of the mice, monitoring, with particular interest, those tests that show an alteration of nociception (hot plate, visceral pain [J Neurochem (2007) 103: 2629-39] and muscle pain [J Neurosci (2007) 27: 10000-6]). Prior to beginning the administration of compound c and metformin, and following the pain behaviour tests, other behavioural tests will be conducted which show other symptoms presented by patients with fibromyalgia: […]
Background: Hot-plate and tail-flick tests time the reaction to a heat stimulus.

In test [2] the test system is mice. As to conditions: after first five days of compound c; FIG. 10. An excerpt:
Following the first five days of administration of compound c, behavioural determinations were made in order to evaluate the symptoms. […] Another symptom associated with pain in fibromyalgia is depression.
Depression test: Tail suspension, forced swimming.

The subject of test [3] is mice. Put plainly: Symptoms of fibromyalgia (pain, depression) in mice with AMPK inhibited by compound c. In kind it is in vivo. The note with it: then metformin. An excerpt:
In order to monitor the effect of metformin in an in vivo model of AMPK deficit, we will use mice that will be administered compound c, a specific inhibitor of AMPK phosphorylation, in time, and their behaviour will be characterised one week before starting the administrations of compound c and 7 days after the first administration. […] Prior to beginning the administration of compound c and metformin, and following the pain behaviour tests, other behavioural tests will be conducted which show other symptoms presented by patients with fibromyalgia: […]

Test [4] relates to blood mononuclear cells (BMCs) of patients with fibromyalgia. The note with it: BMCs of 20 fibromyalgia patients after metformin. The text has this:
(§1) In order to study the role of AMPK phosphorylation in patients with fibromyalgia, AMPK activation was induced with metformin, a potent AMPK stimulator, in the BMCs of 20 patients.
(§2) In order to evaluate the effect of metformin in in vitro models of fibromyalgia, we will use mononuclear cells isolated from patients with fibromyalgia and kept under culture conditions, with RPMI medium with 10% serum and 5% CO2. Parallel to this, skin fibroblasts isolated from patients with fibromyalgia kept under culture with DMEM medium with 20% serum and 5% CO2 will be used. These cultures will enable us to evaluate the toxicity of different doses of metformin and compounds that induce AMPK phosphorylation, through the quantification of apotosis and cell growth, by counting the nuclei of live cells. Once the ideal working dose has been found, below 5 mM, we will be able to quantify the protection against stressful stimuli through the effect of hydrogen peroxide, a very potent free radical. Using flow cytometry, we will evaluate the production of ROS before and after the treatment below 5 mM. Other parameters to be quantified at these doses will be ATP, by means of luminometry, citrate synthase as a marker of mitochondrial mass, by means of enzyme kinetics spectrophotometry, and inflammatory interleukins by means of ELISA.

The test system of test [5] is inflammasome (IL-1β, IL-18) in BMCs of patients with fibromyalgia. Put plainly: IL-1β and IL-18 inflammasome interleukins in cells of fibromyalgia patients. The test is classed as cell-based, human.
From the text: as §1, §2

Test [6] concerns fibroblasts of patients with fibromyalgia. Put plainly: Protection of patient fibroblasts exposed to hydrogen peroxide (cell death). The note with it: low doses of hydrogen peroxide with metformin added, FIG. 4. The test is classed as cell-based, human.
Protocol: Parallel to this, skin fibroblasts isolated from patients with fibromyalgia kept under culture with DMEM medium with 20% serum and 5% CO2 will be used. […] Once the ideal working dose has been found, below 5 mM, we will be able to quantify the protection against stressful stimuli through the effect of hydrogen peroxide, a very potent free radical. Using flow cytometry, we will evaluate the production of ROS before and after the treatment below 5 mM. Other parameters to be quantified at these doses will be ATP, by means of luminometry, citrate synthase as a marker of mitochondrial mass, by means of enzyme kinetics spectrophotometry, and inflammatory interleukins by means of ELISA.
The conditions of test [7]: neuropathic pain (Russe et al., 2013), adiposis dolorosa (Labuzek et al., 2013); cited from earlier work.
[8] abbreviates: BMCs of fibromyalgia patients after metformin, FIG. 3.

Take `c1cc(-c2cnn3cc(-c4ccc(OCCN5CCCCC5)cc4)cnc23)ccn1` [compound c]: in the test on AMPK phosphorylation, the “ATP (deficit)” value is “induced alterations”, the “citrate synthase (mitochondrial mass)” value is “induced alterations”, the lipid peroxidation result was “induced alterations” and the “activation of IL-1β interleukin of the inflammasome” value is reported as “induced alterations”. In addition, the “activation of IL-18 interleukin of the inflammasome” value with AMPK phosphorylation is recorded as “induced alterations”. Also, the “response latency to the thermal stimulus (hot-plate test)” value in the test with mice [1] was “decrease in the response latency”. In addition, in the test with mice [2], the “paralysis (immobilisation) in tail suspension test, reflecting depression” value is given as “greater paralysis”. Also, in the test on mice [3], the “symptoms typical of fibromyalgia, such as pain or depression” value is “presented symptoms typical of fibromyalgia”.

Take `CN(C)C(=N)N=C(N)N` [metformin]: the ATP levels entry in test [4] (FIG. 1) is “significant recovery”. The “mitochondrial ROS” value in test [4] (FIG. 2) was “decrease”. In test [5] (setting [8]), the “IL-1β interleukin of the inflammasome” value is “decrease” and the “IL-18 interleukin of the inflammasome” value is on record as “decrease”. Further, the “inhibition of the inflammasome” value in test [5] (cells of patients with fibromyalgia) was “demonstrated inhibition of the inflammasome”. Also, the cell death entry in test [6] is reported as “significantly reduced”. Besides, the “inhibition of the inflammasome” value in the test on AMPK phosphorylation (mice with inhibited AMPK) is “demonstrated inhibition of the inflammasome”. In addition, in the test on AMPK phosphorylation, the “ATP (deficit)” value was “restored”, the “citrate synthase (mitochondrial mass)” value was “restored”, the lipid peroxidation entry is listed as “restored” and the “activation of IL-1β interleukin of the inflammasome” value is listed as “restored”. Moreover, in the test with AMPK phosphorylation, the “activation of IL-18 interleukin of the inflammasome” value was “restored”. For the same compound, the “symptoms typical of fibromyalgia, such as pain or depression” value with mice [3] is reported as “recovery in the symptoms”. Moreover, the analgesic effect entry in test [7] is “strong analgesic effect”.

Source of the values: US20150272911A1, “Use of AMPK Inducers and Metformin for the Treatment of Fibromyalgia” (priority 2014, published 2015).
